From patent publication US11618746B2, “Inhibitors of APOL1 and methods of using same” (Vertex Pharmaceuticals Incorporated, priority 2018, dated 2023)

Biological target: T1, G1 APOL1 (Homo sapiens, UniProt O14791, I384M/S342G)
T1 construct: expressed in transfected cells
T1 sequence (O14791 28-398 S342G/I384M): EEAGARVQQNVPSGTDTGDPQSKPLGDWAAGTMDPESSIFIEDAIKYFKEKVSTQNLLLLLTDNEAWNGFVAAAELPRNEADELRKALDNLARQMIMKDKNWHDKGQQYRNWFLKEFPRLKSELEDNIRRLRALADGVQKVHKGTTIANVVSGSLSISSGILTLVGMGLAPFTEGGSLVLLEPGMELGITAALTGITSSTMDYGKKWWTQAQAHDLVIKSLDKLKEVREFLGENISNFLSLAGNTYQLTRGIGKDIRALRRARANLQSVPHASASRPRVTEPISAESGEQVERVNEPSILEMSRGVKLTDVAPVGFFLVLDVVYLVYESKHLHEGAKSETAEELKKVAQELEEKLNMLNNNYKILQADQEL
Experiment: Acute APOL1 Thallium Assay with inducible stable clones of HEK 293 cells
Format: cell-based
Settings: HEK T-Rex tetracycline-inducible cells expressing G1 APOL1 (clone G1 DC3.25); inhibition of thallium flux rate
How it was run: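 HEK293 T-Rex cells with tetracycline-inducible G1 APOL1 (clone DC3.25), 26000 cells per well, induced with tetracycline at plating and incubated at 37° C, 5% CO2. Pore activity read on FLIPR as Tl+ influx via fluorescence of AM-ester-loaded thallium-sensitive dye.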

Structure (SMILES)	IC50 [nM]
O=C(CCc1c(-c2ccc(F)cc2)[nH]c2ccccc12)N[C@@H]1C(=O)NC[C@H]1O [Compound 87, 3-[2-(4-fluorophenyl)-1H-indol-3-yl]-N-[(3S,4R)-4-hydroxy-2-oxo-pyrrolidin-3-yl]propanamide]	< 250
O=C1NC[C@@H](O)[C@@H]1NC(=O)C(F)(F)Cc1c(-c2ccc(F)cc2)[nH]c2c(F)cc(F)cc12 [Compound 95, 3-[5,7-difluoro-2-(4-fluorophenyl)-1H-indol-3-yl]-2,2-difluoro-N-[(3S,4R)-4-hydroxy-2-oxo-pyrrolidin-3-yl]propanamide]	< 250
Cc1c(F)c(F)cc2c(CCC(=O)N[C@@H]3C(=O)NC[C@H]3O)c(-c3ccc(F)cc3)[nH]c12 [Compound 98, 3-[5,6-difluoro-2-(4-fluorophenyl)-7-methyl-1H-indol-3-yl]-N-[(3S,4R)-4-hydroxy-2-oxo-pyrrolidin-3-yl]propanamide]	< 250
Cc1c(F)c(F)cc2c(CCC(=O)N[C@@H]3C(=O)NC[C@H]3O)c(-c3ccccc3)[nH]c12 [Compound 99, 3-(5,6-difluoro-7-methyl-2-phenyl-1H-indol-3-yl)-N-[(3S,4R)-4-hydroxy-2-oxo-pyrrolidin-3-yl]propanamide]	< 250
O=C(CCc1c(-c2ccc(F)cc2)[nH]c2c(F)cc(C(F)(F)F)cc12)N[C@@H]1C(=O)NC[C@H]1O [Compound 101, 3-[7-fluoro-2-(4-fluorophenyl)-5-(trifluoromethyl)-1H-indol-3-yl]-N-[(3S,4R)-4-hydroxy-2-oxo-pyrrolidin-3-yl]propanamide]	< 250
O=C(CCc1c(-c2ccc(OC(F)F)cc2)[nH]c2c(F)cc(F)cc12)N[C@@H]1C(=O)NC[C@H]1O [Compound 102]	< 250
O=C(CCc1c(-c2cccc(F)c2)[nH]c2c(F)cc(F)cc12)N[C@@H]1C(=O)NC[C@H]1O [Compound 103]	< 250
O=C(CCc1c(-c2cc(F)cc(F)c2)[nH]c2c(F)cc(F)cc12)N[C@@H]1C(=O)NC[C@H]1O [Compound 104]	< 250
O=C(CCc1c(-c2ccc(F)c(F)c2)[nH]c2c(F)cc(F)cc12)N[C@@H]1C(=O)NC[C@H]1O [Compound 105]	< 250
O=C(CCc1c(-c2ccc(F)cc2)[nH]c2c(OC(F)F)cc(F)cc12)N[C@@H]1C(=O)NC[C@H]1O [Compound 107]	< 250
O=C(CCc1c(-c2ccc(F)cc2)[nH]c2ccc(C(F)(F)F)cc12)N[C@@H]1C(=O)NC[C@H]1O [Compound 108, 3-[2-(4-fluorophenyl)-5-(trifluoromethyl)-1H-indol-3-yl]-N-[(3S,4R)-4-hydroxy-2-oxo-pyrrolidin-3-yl]propanamide]	< 250
O=C(CCc1c(-c2ccccc2)[nH]c2cc(F)ccc12)N[C@@H]1C(=O)NC[C@H]1O [Compound 109, 3-(6-fluoro-2-phenyl-1H-indol-3-yl)-N-[(3S,4R)-4-hydroxy-2-oxo-pyrrolidin-3-yl]propanamide]	< 250
O=C(CCc1c(-c2ccccc2)[nH]c2c(C(F)(F)F)cccc12)N[C@@H]1C(=O)NC[C@H]1O [Compound 112, N-[(3S,4R)-4-hydroxy-2-oxo-pyrrolidin-3-yl]-3-[2-phenyl-7-(trifluoromethyl)-1H-indol-3-yl]propanamide]	250 to 1000
O=C(CCc1c(-c2ccccc2)[nH]c2cccc(F)c12)N[C@@H]1C(=O)NC[C@H]1O [Compound 114, 3-(4-fluoro-2-phenyl-1H-indol-3-yl)-N-[(3S,4R)-4-hydroxy-2-oxo-pyrrolidin-3-yl]propanamide]	< 250
N#Cc1ccc(-c2[nH]c3ccccc3c2CCC(=O)N[C@@H]2C(=O)NC[C@H]2O)cc1 [Compound 116, 3-[2-(4-cyanophenyl)-1H-indol-3-yl]-N-[(3S,4R)-4-hydroxy-2-oxo-pyrrolidin-3-yl]propanamide]	< 250
O=C(CCc1c(-c2ccc(OC(F)(F)F)cc2)[nH]c2ccccc12)N[C@@H]1C(=O)NC[C@H]1O [Compound 118]	< 250
O=C(CCc1c(-c2ccc(Cl)c(F)c2)[nH]c2ccccc12)N[C@@H]1C(=O)NC[C@H]1O [Compound 120]	< 250
COc1ccc(-c2[nH]c3ccccc3c2CCC(=O)N[C@@H]2C(=O)NC[C@H]2O)cc1 [Compound 121]	< 250
Cc1ccc(-c2[nH]c3ccccc3c2CCC(=O)N[C@@H]2C(=O)NC[C@H]2O)c(F)c1 [Compound 122]	< 250
O=C(CCc1c(-c2ccc(C(F)(F)F)cc2)[nH]c2ccccc12)N[C@@H]1C(=O)NC[C@H]1O [Compound 123]	< 250
Cc1ccc(-c2[nH]c3ccccc3c2CCC(=O)N[C@@H]2C(=O)NC[C@H]2O)cc1 [Compound 124]	< 250
Cc1cc(-c2[nH]c3ccccc3c2CCC(=O)N[C@@H]2C(=O)NC[C@H]2O)ccc1F [Compound 125]	< 250
Cc1ccc(-c2[nH]c3ccccc3c2CCC(=O)N[C@@H]2C(=O)NC[C@H]2O)cc1F [Compound 126]	< 250
O=C(CCc1c(-c2cc(F)cc(F)c2)[nH]c2ccccc12)N[C@@H]1C(=O)NC[C@H]1O [Compound 127, 3-[2-(3,5-difluorophenyl)-1H-indol-3-yl]-N-[(3S,4R)-4-hydroxy-2-oxo-pyrrolidin-3-yl]propanamide]	250 to 1000
O=C(CCc1c(-c2ccc(Cl)cc2)[nH]c2ccccc12)N[C@@H]1C(=O)NC[C@H]1O [Compound 128, 3-[2-(4-chlorophenyl)-1H-indol-3-yl]-N-[(3S,4R)-4-hydroxy-2-oxo-pyrrolidin-3-yl]propanamide]	< 250
O=C(CCc1c(-c2ccc(F)c(F)c2)[nH]c2ccccc12)N[C@@H]1C(=O)NC[C@H]1O [Compound 129, 3-[2-(3,4-difluorophenyl)-1H-indol-3-yl]-N-[(3S,4R)-4-hydroxy-2-oxo-pyrrolidin-3-yl]propanamide]	< 250
O=C(CCc1c(-c2ccc(C(F)F)cc2)[nH]c2ccccc12)N[C@@H]1C(=O)NC[C@H]1O [Compound 131, 3-[2-[4-(difluoromethyl)phenyl]-1H-indol-3-yl]-N-[(3S,4R)-4-hydroxy-2-oxo-pyrrolidin-3-yl]propanamide]	< 250
